# Assay results as given in patent US20070110751A1, “Compositions and methods for reducing infarct size” (priority 2005, published 2007).
# Read-outs that look alike come from different tables or passages of the source.
# How the values were obtained:
# C57/BL6 mice = assay type: in vivo, mouse
# Description: Complexes were immunoprecipitated from 300 μg of total protein lysates from each of the indicated treatment groups. ^32P-labeling of histones H1 was measured using a standard Cdk2 kinase assay. […] IFS in DETA/NO-treated mice compared to control Vehicle-treated mice are shown (*P<0.05; n=4 per group).
# IFS in Roscovitine-treated mice compared to control vehicle-treated mice are shown (*P<0.001; n=6 per group). […] Ventricular lysates were probed for the indicated proteins. Mean IFS sizes after 24 hours of reperfusion are shown. (*P<0.05 for Cdk2^+/+ versus Cdk2^−/− IFS; n=5 per group).
# Male mice were subjected to myocardial ischemia/reperfusion as previously described (Wang, G., et al. 2005. Am. J. Physiol. Heart Circ. Physiol 288:H1290-H1295). Pentobarbital-anesthetized (50 mg/kg body wt i.p.) mice were intubated for positive pressure ventilation with oxygen-enriched room air during the surgical procedure. After left thoracotomy between ribs three and four, the pericardium was opened and a silk 8-0 suture was looped under the left anterior descending coronary artery 1-3 mm from the tip of the normally positioned left atrium. Ischemia was induced by ligation of the suture (a 1 to 2 mm section of PE-10 tubing was placed between the suture and the artery to prevent damage to the vessel). Rectal temperature was continuously measured and maintained at 36.5-37.5° C. Following a 30-min coronary artery occlusion, the suture was removed to allow coronary reperfusion followed by closure of the chest wall. After 24 hours of coronary artery reperfusion the heart was excised and postmortem perfused as previously described (Wang, G., et al. 2005. Am. J. Physiol. Heart Circ. Physiol 288:H1290-H1295). The infarct region was determined by perfusion with a 1% solution of 2,3,5-triphenyltetrazolium chloride (TTC) in phosphate buffer (pH 7.4, 37° C.). To delineate the risk region, the coronary artery was tied at the site of the previous occlusion and the aortic root perfused with a 1% solution of Evans blue dye. Infarct size was measured by planimetry with NIH Image and expressed as a percentage of the area at risk.
# Limitation of IFS by pharmacological delayed preconditioning of the heart was induced with the nitric oxide donor diethylenetriamine/nitric oxide (DETA/NO) as previously reported (Wang, G., et al. 2005. Am. J. Physiol. Heart Circ. Physiol 288:H1290-H1295). After dissecting free the left jugular vein in pentobarbital-anesthetized WT mice, DETA/NO was given in 4 boluses 24-hours prior to 30-min coronary artery occlusion (0.1 mg/kg×4, i.v.).
# Cdk2 = biological target: T1, Cdk2 (Mus musculus, UniProt P97377); assay: Cdk2 immune complex kinase assay on ventricular lysates of treated mice (histones H1 as substrate); assay type: in vivo; conditions: DETA/NO 0.1 mg/kg x 4 i.v. 24 hours before I/R, compared to vehicle-treated hearts
# T1 construct: Cdk2 complexes were immunoprecipitated from ventricular lysates from each of the indicated treatment groups; from tissue; host or cells: mouse heart ventricle (C57/BL6 mice, treated in vivo)
# Description: Complexes were immunoprecipitated from 300 μg of total protein lysates from each of the indicated treatment groups. ^32P-labeling of histones H1 was measured using a standard Cdk2 kinase assay.
# Ventricular lysates were probed for the indicated proteins.
# Western blotting was performed using the identical protein lysates. Antibodies were purchased from Santa Cruz Biotechnology (Santa Cruz). Protein expression was visualized using horseradish peroxidase-conjugated second antibodies and enhanced chemiluminescence reagents (Amersham Biosciences). Nonsaturated autoradiographs were quantitated with SigmaScan.
# Cdk2 complexes were immunoprecipitated from ventricular lysates from each of the indicated treatment groups.
SMILES,"reduction in infarct size compared to vehicle treated mice (C57/BL6 mice; Roscovitine 2.8 mg/gm i.p. two hours prior to ischemia, 30 min occlusion, 24 h reperfusion, vs DMSO vehicle) [%]","infarct size (IFS % of A@R) (C57/BL6 mice; Roscovitine 2.8 mg/gm intraperitoneally two hours prior to ischemia, 30 min LAD occlusion, 24 h reperfusion, mean ± SEM, P<0.001 vs vehicle (DMSO), n=6 per group)",Cdk2 activity in hearts after 30 minutes of ischemia (Cdk2),Cdk2 activity in hearts after 30 minutes of ischemia (Cdk2; listed as NO donor),"infarct size (IF % of the A@R) (C57/BL6 mice; DETA/NO 0.1 mg/kg x 4 i.v. 24 hours before 30-min coronary occlusion, wildtype mice, mean ± SEM, P<0.05 vs vehicle, n=4 per group)","reduction in infarct size compared to vehicle treated mice (C57/BL6 mice; DETA/NO 0.1 mg/kg x 4 i.v. 24 hours before I/R injury, vs vehicle) [%]"
"CC[C@H](CO)Nc1nc(NCc2ccccc2)c2ncn(C(C)C)c2n1 [Roscovitine, 6-Benzylamino-2-(R)-[(1-ethyl)-2-hydroxyethylamino]-9-isopropyl-purine]",36.7,34.2±2.6 IFS % of A@R,–,–,–,–
"NCCN(CCN)/[N+]([O-])=N/O [DETA/NO, diethylenetriamine/nitric oxide]",–,–,decreased Cdk2 activity,blocked the upregulation of Cdk2,35.0±3.7 IF % of the A@R,32
